Experimental data from patent publication US11840528B2 (Hoffmann-La Roche Inc., priority 2018, dated 2023).
pKi: −log10 of the molar value.

Key:
h-GABA-A α5β3γ2 [1] = target: T1, h-GABA-A α5β3γ2 (Homo sapiens, UniProt P18507+P31644); test: Two-electrode voltage clamp electrophysiology in Xenopus laevis oocytes expressing GABAA receptors, modulation of GABA EC20 current; type: cell-based; design: host or cells: Xenopus laevis oocytes micro-injected with RNA transcripts of the subunits; conditions: Table 1; for Efficacy (GABA) %: % modulation of GABA EC20 = 100*(Fold increase-1); for Fold increase h-GABA-A α5β3γ2 oocyte: test compound at approx. 30 fold its Ki, GABA at EC20
Outline: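 Modulation is reported as % of the GABA EC20 current, calculated as 100*(Fold increase−1) from the peak ratio between a second GABA response carrying compound (applied at roughly 30-fold Ki) and a preceding control response. Oocytes expressing human α5β3γ2 were clamped at −80 mV at room temperature, 3–5 days after injection.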

h-GABA-A α5β3γ2 [2] = target: T1, h-GABA-A α5β3γ2; test: [3H]flumazenil competition binding assay, membranes of HEK293 cells expressing GABAA receptors; conditions: displacement of [3H]-Flumazenil 0.5 nM, HEK293 cells expressing human receptors, mean of two determinations; Table 1
Outline: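 Receptor source: human α5β3γ2 transiently transfected into HEK293 cells, membranes in pH 7.5 Krebs-tris. Filtration through GF/C, then scintillation counting.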

| Compound | Efficacy (GABA) % (h-GABA-A α5β3γ2 [1]) [%] | Fold increase h-GABA-A α5β3γ2 oocyte (h-GABA-A α5β3γ2 [1]) | pKi (h-GABA-A α5β3γ2 [2]) |
| --- | --- | --- | --- |
| Cc1ccc(-c2noc(C)c2Cn2ncc(N3CC(OC(F)F)C3)cc2=O)cn1 [Example 168, 5-[3-(difluoromethoxy)azetidin-1-yl]-2-[[5-methyl-3-(6-methyl-3-pyridyl)isoxazol-4-yl]methyl]pyridazin-3-one] | 140 | 2.4 | 8.03 |
| Cc1ccc(-c2noc(C)c2Cn2ncc(N3CC4(CCCO4)C3)cc2=O)nn1 [Example 171, 2-[[5-methyl-3-(6-methylpyridazin-3-yl)isoxazol-4-yl]methyl]-5-(5-oxa-2-azaspiro[3.4]octan-2-yl)pyridazin-3-one] | 80 | 1.8 | 8.38 |
| Cc1ccc(-c2noc(C)c2Cn2ncc(-c3ccnc(OC(F)F)c3)cc2=O)cn1 [Example 175, 5-(2-(difluoromethoxy)pyridin-4-yl)-2-((5-methyl-3-(6-methylpyridin-3-yl)isoxazol-4-yl)methyl)pyridazin-3(2H)-one] | 86 | 1.86 | 8.18 |
| Cc1ccc(-c2noc(C)c2Cn2ncc(-c3cnn(CC4(C)COC4)c3)cc2=O)cn1 [Example 176, 2-((5-methyl-3-(6-methylpyridin-3-yl)isoxazol-4-yl)methyl)-5-(1-((3-methyloxetan-3-yl)methyl)-1H-pyrazol-4-yl)pyridazin-3(2H)-one] | 103 | 2.03 | 7.53 |
| COc1ncc(-c2cnn(Cc3c(-c4ccc(C)nc4)noc3C)c(=O)c2)cc1F [Example 183, 5-(5-fluoro-6-methoxypyridin-3-yl)-2-((5-methyl-3-(6-methylpyridin-3-yl)isoxazol-4-yl)methyl)pyridazin-3(2H)-one] | 137 | 2.37 | 7.54 |
| Cc1ccc(-c2noc(C)c2Cn2ncc(N3CCN(C(C)C)[C@@H](C)C3)cc2=O)cn1 [Example 184, 5-[(3S)-4-isopropyl-3-methyl-piperazin-1-yl]-2-[[5-methyl-3-(6-methyl-3-pyridyl)isoxazol-4-yl]methyl]pyridazin-3-one] | 125 | 2.25 | 7.54 |
| Cc1ccc(-c2noc(C)c2Cn2ncc(N3CC(OCC4CC4)C3)cc2=O)nn1 [Example 185, 5-[3-(cyclopropylmethoxy)azetidin-1-yl]-2-[[5-methyl-3-(6-methylpyridazin-3-yl)isoxazol-4-yl]methyl]pyridazin-3-one] | 126 | 2.26 | 8.38 |
| Cc1ccc(-c2noc(C)c2Cn2ncc(N3CC(Oc4ccc(C)nn4)C3)cc2=O)cn1 [Example 186, 2-[[5-methyl-3-(6-methyl-3-pyridyl)isoxazol-4-yl]methyl]-5-[3-(6-methylpyridazin-3-yl)oxyazetidin-1-yl]pyridazin-3-one] | 160 | 2.6 | 7.43 |
| COc1ncc(-c2cnn(Cc3c(-c4ccc(C)nc4)noc3C)c(=O)c2)cc1Cl [Example 188, 5-(5-chloro-6-methoxypyridin-3-yl)-2-((5-methyl-3-(6-methylpyridin-3-yl)isoxazol-4-yl)methyl)pyridazin-3(2H)-one] | 210 | 3.1 | 8.07 |
| Cc1ccc(-c2noc(C)c2Cn2ncc(-c3cc(F)cnc3Cl)cc2=O)cn1 [Example 189, 5-(2-chloro-5-fluoro-3-pyridyl)-2-((5-methyl-3-(6-methyl-3-pyridyl)isoxazol-4-yl)methyl)pyridazin-3-one] | 180 | 2.8 | 7.55 |
| COc1cc(-c2cnn(Cc3c(-c4ccc(C)nc4)noc3C)c(=O)c2)c(F)cn1 [Example 191, 5-(5-fluoro-2-methoxypyridin-4-yl)-2-((5-methyl-3-(6-methylpyridin-3-yl)isoxazol-4-yl)methyl)pyridazin-3(2H)-one] | 126 | 2.26 | 8.23 |

Continued by rising pKi (h-GABA-A α5β3γ2 [2]), values first:

| Efficacy (GABA) % (h-GABA-A α5β3γ2 [1]) [%] | Fold increase h-GABA-A α5β3γ2 oocyte (h-GABA-A α5β3γ2 [1]) | pKi (h-GABA-A α5β3γ2 [2]) | Compound |
| --- | --- | --- | --- |
| 196 | 2.96 | 7.41 | CCOc1ncc(-c2cnn(Cc3c(-c4ccc(C)nc4)noc3C)c(=O)c2)cc1C [Example 180, 5-(6-ethoxy-5-methylpyridin-3-yl)-2-((5-methyl-3-(6-methylpyridin-3-yl)isoxazol-4-yl)methyl)pyridazin-3(2H)-one] |
| 113 | 2.13 | 7.47 | Cc1ccc(-c2noc(C)c2Cn2ncc(-c3cnn(CC(C)C)c3)cc2=O)cn1 [Example 172, 5-(1-isobutylpyrazol-4-yl)-2-[[5-methyl-3-(6-methyl-3-pyridyl)isoxazol-4-yl]methyl]pyridazin-3-one] |
| 80 | 1.8 | 7.53 | Cc1ccc(-c2noc(C)c2Cn2ncc(-c3ccc(C4CC4)nc3)cc2=O)cn1 [Example 173, 5-(6-cyclopropyl-3-pyridyl)-2-[[5-methyl-3-(6-methyl-3-pyridyl)isoxazol-4-yl]methyl]pyridazin-3-one] |
| 133 | 2.33 | 7.53 | COc1cc(-c2cnn(Cc3c(-c4ccc(C)nc4)noc3C)c(=O)c2)cnc1OC [Example 179, 5-(5,6-dimethoxypyridin-3-yl)-2-((5-methyl-3-(6-methylpyridin-3-yl)isoxazol-4-yl)methyl)pyridazin-3(2H)-one] |
| 146 | 2.46 | 7.60 | Cc1ccc(-c2noc(C)c2Cn2ncc(-c3ccc(OC(C)C)nc3)cc2=O)cn1 [Example 190, 5-(6-isopropoxy-3-pyridyl)-2-((5-methyl-3-(6-methyl-3-pyridyl)isoxazol-4-yl)methyl)pyridazin-3-one] |
| 101 | 2.01 | 7.66 | CNc1ccc(-c2cnn(Cc3c(-c4ccc(C)nc4)noc3C)c(=O)c2)cn1 [Example 174, 5-(6-(methylamino)-3-pyridyl)-2-((5-methyl-3-(6-methyl-3-pyridyl)isoxazol-4-yl)methyl)pyridazin-3-one] |
| 209 | 3.09 | 7.72 | Cc1ccc(-c2noc(C(F)F)c2Cn2ncc(N3C[C@@H](C)O[C@@H](C)C3)cc2=O)cn1 [Example 182, 2-((5-(Difluoromethyl)-3-(6-methylpyridin-3-yl)isoxazol-4-yl)methyl)-5-((2S,6R)-2,6-dimethylmorpholino)pyridazin-3(2H)-one] |
| 121 | 2.21 | 7.74 | Cc1ccc(-c2noc(C)c2Cn2ncc(-c3ccnc(OC4CCOC4)c3)cc2=O)cn1 (stereo not drawn) [Example 177, 2-((5-methyl-3-(6-methylpyridin-3-yl)isoxazol-4-yl)methyl)-5-(2-((tetrahydrofuran-3-yl)oxy)pyridin-4-yl)pyridazin-3(2H)-one] |
| 134 | 2.34 | 7.80 | Cc1ccc(-c2noc(C)c2Cn2ncc(N3CC(F)C3)cc2=O)cn1 [Example 181, 5-(3-fluoroazetidin-1-yl)-2-[[5-methyl-3-(6-methyl-3-pyridyl)isoxazol-4-yl]methyl]pyridazin-3-one] |
| 95 | 1.95 | 8.14 | Cc1ccc(-c2noc(C)c2Cn2ncc(N3CC4(C3)CC(F)(F)CO4)cc2=O)cn1 [Example 193, 5-(7,7-difluoro-5-oxa-2-azaspiro[3.4]octan-2-yl)-2-[[5-methyl-3-(6-methyl-3-pyridyl)isoxazol-4-yl]methyl]pyridazin-3-one] |
| 221 | 3.21 | 8.19 | Cc1ccc(-c2noc(C)c2Cn2ncc(-c3cc(C)nc(C)c3)cc2=O)cn1 [Example 192, 5-(2,6-dimethylpyridin-4-yl)-2-((5-methyl-3-(6-methylpyridin-3-yl)isoxazol-4-yl)methyl)pyridazin-3(2H)-one] |
| 158 | 2.58 | 8.57 | Cc1ccc(-c2noc(C)c2Cn2ncc(N3CC[C@@H](C)C3)cc2=O)cn1 [Example 178, 2-[[5-methyl-3-(6-methyl-3-pyridyl)isoxazol-4-yl]methyl]-5-[(3R)-3-methylpyrrolidin-1-yl]pyridazin-3-one] |
| 97 | 1.97 | 8.62 | COC1CN(c2cnn(Cc3c(-c4ccc(C)nn4)noc3C)c(=O)c2)C1 [Example 169, 5-(3-methoxyazetidin-1-yl)-2-[[5-methyl-3-(6-methylpyridazin-3-yl)isoxazol-4-yl]methyl]pyridazin-3-one] |
| 111 | 2.11 | 8.66 | CCOC1CN(c2cnn(Cc3c(-c4ccc(C)nn4)noc3C)c(=O)c2)C1 [Example 170, 5-(3-ethoxyazetidin-1-yl)-2-[[5-methyl-3-(6-methylpyridazin-3-yl)isoxazol-4-yl]methyl]pyridazin-3-one] |
